# From paper PMC10056443, “Derivatives of Amaryllidaceae Alkaloid Ambelline as Selective Inhibitors of Hepatic Stage of Plasmodium berghei Infection In Vitro” (Pharmaceutics, 2023)
# Where two headings read alike, the source gives them in different places.
# Tests used:
# [1] = system: hepatic stage of P. berghei; assay: In vitro activity against P. berghei hepatic stages (luciferase-expressing sporozoites in Huh-7 cells, bioluminescence); assay type: cell-based, Plasmodium berghei; conditions: Plasmodium berghei; for activity at 1 µM / activity at 10 µM: Huh-7, 48 h, DMSO = 100, read-out: INFECTION Ø screening
# Procedure: Activity against the hepatic stage of P. berghei infection was assessed using the human hepatoma cell line Huh-7 (deposited at the Japanese Collection of Research Bioresources under JCRB0403). The protocol was previously comprehensively described by Prudêncio et al. and by Ploemen et al.. […] Cells were seeded in 96-well plates at a density of 1 × 10^4 cells per well in 100 µL of culture medium and incubated at 37 °C with 5% CO2 for approximately 18 h. […] The culture medium was substituted by infection medium with diluted compounds 1 hour in advance of infection. Luciferase-expressing P. berghei sporozoites (PbA-LuciGFPcon spz) were freshly obtained through the dissection of salivary glands from infected female Anopheles stephensi mosquitoes. Sporozoites were added to the cells at 1:1 ratio, i.e., 1 × 10^4 sporozoites were added per well, and then subjected to centrifugation at 1800× g for 5 min. The plate was then incubated for 46 h at 37 °C with 5% CO2, at which time Huh-7 cell confluency was indirectly assessed by the alamarBlue assay (Invitrogen, Waltham, MA, USA), as reported in the manufacturer’s protocol. Parasite load was assessed 48 h post-infection by a bioluminescence assay, as reported by the manufacturer (Biotium, Fremont, CA, USA). GraphPad Prism 8 (GraphPad Software, Inc., La Jolla, CA, USA) was used to obtain IC50 values using nonlinear regression analysis to fit the dose-response curves normalized results.
# Huh-7 cell line = assay: Huh-7 cell confluency by alamarBlue assay during hepatic-stage test; assay type: cell-based; conditions: human, 46 h, pH 7
# Procedure: Activity against the hepatic stage of P. berghei infection was assessed using the human hepatoma cell line Huh-7 (deposited at the Japanese Collection of Research Bioresources under JCRB0403). The protocol was previously comprehensively described by Prudêncio et al. and by Ploemen et al.. Briefly, cell culture medium consisted of 1640 RPMI medium supplemented with 10% v/v fetal calf serum, 1% v/v L-glutamine, 1% v/v nonessential amino acids, 1% v/v penicillin/streptomycin, and 10 mM HEPES, pH 7. Cells were seeded in 96-well plates at a density of 1 × 10^4 cells per well in 100 µL of culture medium and incubated at 37 °C with 5% CO2 for approximately 18 h. […] The culture medium was substituted by infection medium with diluted compounds 1 hour in advance of infection. Luciferase-expressing P. berghei sporozoites (PbA-LuciGFPcon spz) were freshly obtained through the dissection of salivary glands from infected female Anopheles stephensi mosquitoes. Sporozoites were added to the cells at 1:1 ratio, i.e., 1 × 10^4 sporozoites were added per well, and then subjected to centrifugation at 1800× g for 5 min. The plate was then incubated for 46 h at 37 °C with 5% CO2, at which time Huh-7 cell confluency was indirectly assessed by the alamarBlue assay (Invitrogen, Waltham, MA, USA), as reported in the manufacturer’s protocol. Parasite load was assessed 48 h post-infection by a bioluminescence assay, as reported by the manufacturer (Biotium, Fremont, CA, USA). GraphPad Prism 8 (GraphPad Software, Inc., La Jolla, CA, USA) was used to obtain IC50 values using nonlinear regression analysis to fit the dose-response curves normalized results.
# [2] = system: P. falciparum NF54 ring-stage synchronized cultures; assay: In vitro activity against P. falciparum blood stages (flow cytometry, SYBR green I); assay type: cell-based, Plasmodium falciparum; conditions: Control = 7.76333, 48 h
# Procedure: Activity against the blood stage of P. falciparum infection was assessed by flow cytometry analysis following the incubation of either test compounds or the drug vehicle (DMSO) with ring-stage synchronized parasite cultures, as previously described. Stock solutions of the test compounds, as well as of the positive control compound chloroquine, were prepared in DMSO and diluted to test concentrations in complete malaria culture medium (CMCM), i.e., 1640 RPMI medium supplemented with 25 mM HEPES, 2.4 mM L-glutamine, 50 µg/mL gentamicin, 0.5% w/v Albumax, 11 mM glucose, 1.47 mM hypoxanthine, and 37.3 mM NaHCO3. Samples at tested concentration were then incubated with ring-stage synchronized cultures of P. falciparum NF54 at 2.5% hematocrit and at approximately 1% parasitemia in 96-well plates at 37 °C in a 5% CO2 and 5% O2 atmosphere. Forty-eight hours post incubation, parasite load was assessed by flow cytometry, upon staining with the DNA-specific dye SYBR green I. Approximately 100,000 events were analyzed in each flow cytometry measurement.
# HepG2 cells = assay: Cytotoxicity assessment in vitro (MTT assay); assay type: cell-based; conditions: human, 24 h, 10 µM
# Procedure: (§1) HepG2 cells of human hepatocellular carcinoma (ATCC HB-8065; passage 20–25), purchased from Health Protection Agency Culture Collections (ECACC, Salisbury, UK), were cultured in Minimum Essential Medium Eagle supplemented with 10% v/v fetal bovine serum and 1% v/v L-glutamine solution (Sigma-Aldrich, St. Louis, MO, USA) at 37 °C in a humidified atmosphere containing 5% CO2. For passaging, the cells were treated with trypsin/EDTA (Sigma-Aldrich, St. Louis, MO, USA) at 37 °C and then harvested. For the cytotoxicity evaluation, the cells treated with the test substances were used, while untreated HepG2 cells served as a control group. The cells were seeded in a 96-well plate at a density of 1 × 10^4 cells per well and incubated for 24 h. All tested compounds were dissolved in DMSO to prepare 10 mM stock solutions and diluted to the desired concentration just before the cell treatment. Cytotoxicity of all studied derivatives was screened at 10 μM concentration, and all samples were measured in triplicates. Positive and negative controls were also included. Plates were incubated for 24 h in a humidified atmosphere containing 5% CO2 at 37 °C. After the incubation, a solution of thiazolyl blue tetrazolium bromide (Sigma-Aldrich, St. Louis, MO, USA) in RPMI 1640 medium without phenol red (BioTech, Prague, Czech Republic) was added and incubated for 3 h in a humidified atmosphere containing 5% CO2 at 37 °C. Afterwards, formazan crystals were dissolved in DMSO, and the absorbance of samples was recorded at 570 nm (Synergy Neo2 Multi-Mode Reader NEO2SMALPHAB; BioTek, Winooski, VT, USA).
# [3] = Cytotoxicity assessment in vitro (MTT assay); assay type: cell-based; conditions: human
# Procedure: as §1
# [4] = hepatic stage, Huh-7 cells, parasite load 48 h post-infection, read-out: IC50 P. berghei
# [5] = Huh-7, replicate 1, unit (Table 1: µM), read-out: Antiplasmodial activity - IC50 determination, 1. measurement
# [6] = Huh-7, replicate 2, unit (Table 1: µM), read-out: Antiplasmodial activity - IC50 determination, 2. measurement
# [7] = Huh-7, mean, unit (Table 1: µM), read-out: Antiplasmodial activity - Ø IC50
# [8] = Huh-7, replicate 3, unit (Table 1: µM), read-out: Antiplasmodial activity - IC50 determination, 3. measurement
SMILES,activity at 1 µM [1] [%],activity at 10 µM [1] [%],"IC50 [1, 4] [µM]",CELL CONFLUENCY Ø screening (Huh-7 cell line; 1 µM),CELL CONFLUENCY Ø screening (Huh-7 cell line; 10 µM),"Ø screening, blood stage parasite load ([2]; at 10 nM)","Ø screening, blood stage parasite load ([2]; at 500 nM)","Ø screening, blood stage parasite load ([2]; at 100 nm)","1. screening of cytotoxic potential, HepG2 cell line (HepG2 cells)","2. screening of cytotoxic potential, HepG2 cell line (HepG2 cells)","3. screening of cytotoxic potential, HepG2 cell line (HepG2 cells)","Ø screening, HepG2 (sheet Graphs) (HepG2 cells)","viability at 24 h, 10 µM [3] [%]","IC50 [1, 5] [µM]","IC50 [1, 6] [µM]","IC50 [1, 7] [µM]","IC50 [1, 8] [µM]"
"COc1c2c(cc3c1OCO3)[C@]13C=C[C@H](OC)C[C@H]1[N@](C2)C[C@H]3OC(C)=O [28a, 11-O-Acetylambelline]",79.5,64.4,> 10,94.22,93.33,7.817,11.5,10.27,104.06,105.26,110.57,106.6,107 ± 3,,,,
"CCC(=O)O[C@@H]1CN2Cc3c(cc4c(c3OC)OCO4)[C@@]13C=C[C@H](OC)C[C@@H]23 [28b, 11-O-Propionylambelline]",77.6,64.5,> 10,98.41,102.4,8.397,7.243,7.813,62.58,57.25,55.25,58.36,58 ± 4,,,,
"COc1c2c(cc3c1OCO3)[C@]13C=C[C@H](OC)C[C@H]1N(C2)C[C@H]3OC(=O)C(C)C [28c, 11-O-Isobutanoylambelline]",89.1,59.8,> 10,94.69,93.64,7.643,7.21,8.26,97.78,100.15,88.22,95.38,95 ± 6,15.5,14.4,,
"CCCCC(=O)O[C@@H]1CN2Cc3c(cc4c(c3OC)OCO4)[C@@]13C=C[C@H](OC)C[C@@H]23 [28d, 11-O-Pentanoylambelline]",93.9,25.2,4.08 ± 1.78,95.31,93.14,6.99,6.78,7.043,73.78,63.13,76.88,71.26,71 ± 7,5.65,2.14,4.08,4.44
"COc1c2c(cc3c1OCO3)[C@]13C=C[C@H](OC)C[C@H]1N(C2)C[C@H]3OC(=O)c1ccccc1 [28e, 11-O-Benzoylambelline]",45.7,2.18,0.726 ± 0.126,94.15,86.56,7.597,7.383,7.907,98.77,99.24,87.15,95.05,95 ± 7,0.662,0.646,0.726,0.871
